ChEMBL document CHEMBL6078678, “Unveiling the Antimycobacterial Potential of Novel 4-Alkoxyquinolines: Insights into Selectivity, Mechanism of Action, and In Vivo Exposure” (J Med Chem, 2024)
Values after ≈ are worked out from the molar mass of the structure shown.

Test system: Mycobacterium tuberculosis
Assay: Antibacterial activity against 2-(quinolin-4-yloxy)acetamide resistant Mycobacterium tuberculosis harboring qcrB gene T313A mutant
Format: functional

Compound `CCc1ccc(NCCCOc2cc(C)nc3ccc(Br)cc23)cc1` has an MIC of 3.13 µM (≈ 1.25 µg/mL).
